# Measured values taken from US20100184178A1, “INCREASED ISOPRENE PRODUCTION USING MEVALONATE KINASE AND ISOPRENE SYNTHASE” (priority 2008, published 2010).
# How the values were obtained:
# [1] = Flammability modeling (CAFT) and experimental flammability testing of isoprene; type: physicochemical
# Text: Thus, computer modeling and experimental testing were used to determine the flammability limits of isoprene (such as isoprene in the presence of O2, N2, CO2, or any combination of two or more of the foregoing gases) in order to ensure process safety. The flammability envelope is characterized by the lower flammability limit (LFL), the upper flammability limit (UFL), the limiting oxygen concentration (LOC), and the limiting temperature. For a system to be flammable, a minimum amount of fuel (such as isoprene) must be in the presence of a minimum amount of oxidant, typically oxygen. The LFL is the minimum amount of isoprene that must be present to sustain burning, while the UFL is the maximum amount of isoprene that can be present. Above this limit, the mixture is fuel rich and the fraction of oxygen is too low to have a flammable mixture. The LOC indicates the minimum fraction of oxygen that must also be present to have a flammable mixture. The limiting temperature is based on the flash point of isoprene and is that lowest temperature at which combustion of isoprene can propagate. […]
# The LOC was determined to be 9.5 vol % for an isoprene, O2, N2, and CO2 mixture at 40° C. and 1 atmosphere. […]
# Calculated adiabatic flame temperatures (CAFT) along with a selected limit flame temperature for combustion propagation were used to determine the flammability envelope for isoprene. […]
# Escherichia coli BL21 = experiment: Growth inhibition of Escherichia coli BL21 expressing MVK, PMK, MDD and fed MVA; type: cell-based; conditions: 5.8 mM MVA
# Description: FIG. 145 is a graph of growth curves for cultures of BL21 expressing MVK, circles; MVK+PMV, triangles; MVK+PMV+MDD, squares. Cultures were either fed 5.8 mM MVA, filled symbols, or grown without addition of MVA, open symbols. Y-axis is OD600. Samples were taken for analysis at times indicated by the arrow. Numbers above the arrows correspond to E. coli BL21 cells bearing pTrcK, representing a plasmid expressing MVK (#5), pTrcKK representing a plasmid expressing MVK plus PMK (#7), and pTrcKKD, representing a plasmid expressing MVK plus PMK plus MDD (#6) were grown.
# The purpose of this experiment was to determine the effect of the expression of the proteins mevalonate kinase (MVK), phophomevalonate kinase (PMK), and diphosphomevalonate decarboxylase (MDD) of Escherichia coli cultures.
# E. coli BL21 cells bearing pTrcK, representing a plasmid expressing MVK, pTrcKK representing a plasmid expressing MVK plus PMK, and pTrcKKD, representing a plasmid expressing MVK plus PMK plus MDD were grown at approximately 30° C. and 250 rpm in 250 mL flasks containing 25 mL of TM3 medium (13.6 g K2PO4, 13.6 g KH2PO4, 2.0 g MgSO4*7H2O) supplemented with 1% glucose and 0.8 g/L Biospringer yeast extract (1% Yeast extract final). When OD600 reached 0.8 to 0.9, 5.8 mM mevalonic acid was added to the cultures and incubation was continues for an additional 5 hours. OD600 measurements were taken, and the cultures were sampled for metabolite analysis at 2 hours post MVA addition. Samples were collected into 100% MeOH prechilled in dry ice in a ratio of 1:1. Samples were stored at −80° C. until analyzed as follows. The methanol-quenched cells were pelleted by centrifugation and the resulting supernatant was loaded onto Strata-X-AW anion exchange column (Phenomenex) containing 30 mg of sorbent. The pellet was reextracted twice with several milliliters of 50%, v/v, aqueous methanol containing 20% ammonium bicarbonate buffer (pH=8.0) and then with 75%, v/v, aqueous bicarbonate-buffered methanol. […]
# [2] = about 1 atmosphere and about 60° F.; cited from earlier work
compound,measurement,setting,value
"C=CC(=C)C [isoprene, 2-methyl-1,3-butadiene]",limiting oxygen concentration (LOC),"[1]; isoprene, O2, N2, and CO2 mixture at 40° C. and 1 atmosphere",9.5 vol %
same,limiting temperature,[1]; lowest temperature at which combustion of isoprene can propagate,about −54 °C
"C[C@@](O)(CCO)CC(=O)O [MVA, mevalonic acid]",growth (OD600),"Escherichia coli BL21; BL21 pTrcK, MVK only (strain #5)",No growth inhibition was observed
same,growth (OD600),"Escherichia coli BL21; BL21 pTrcKK, MVK plus PMK (strain #7)",inhibition of growth was evident
same,growth (OD600),"Escherichia coli BL21; BL21 pTrcKKD, MVK plus PMK plus MDD (strain #6)",additional inhibition is observed
CCO [ethanol],LFL,[2],about 3.3 vol %
same,LOC,[2],about 8.7 vol %
